Test results reported in ChEMBL document CHEMBL1126541, “Novel water soluble phosphate prodrugs of taxol possessing in vivo antitumor activity” (1993).

What was measured:
Type in all cases: functional, Mus musculus
[1] = test system: M109; experiment: In vivo antitumor activity in M109 (Murine lung carcinoma cells) tumor model after (ip) administration on days 5 and 8 at dose of 140 mg/kg/injection.
[2] = test system: M109; experiment: In vivo antitumor activity in M109 (Murine lung carcinoma cells) tumor model after (ip) administration on days 5 and 8 at dose of 70 mg/kg/injection.
[3] = test system: M109; experiment: In vivo antitumor activity of the taxol was determined in M109 (Murine lung carcinoma cells) tumor model after (ip) administration in 10% Tween 80 in saline on days 5 and 8 at dose of 40 mg/kg/injection in presence of Taxol
[4] = test system: M109; experiment: In vivo antitumor activity in M109 (Murine lung carcinoma cells) tumor model after (ip) administration on days 1, 5,and 9 at dose of 100 mg/kg/injection.
[5] = test system: M109; experiment: In vivo antitumor activity of the taxol was determined in M109 (Murine lung carcinoma cells) tumor model after (ip) administration in 10% Tween 80 in saline on days1, 5, and 9 at a dose of 30 mg/kg/injection in presence of Taxol

SMILES	T/C [1] [%]	T/C [2] [%]	T/C [3] [%]	T/C [4] [%]	T/C [5] [%]
CC(=O)O[C@H]1C(=O)[C@]2(C)[C@@H](OC(=O)CC(C)(C)c3c(C)cc(C)cc3OP(=O)([O-])[O-])C[C@H]3OC[C@@]3(OC(C)=O)[C@H]2[C@H](OC(=O)c2ccccc2)[C@]2(O)C[C@H](OC(=O)[C@H](O)[C@@H](NC(=O)c3ccccc3)c3ccccc3)C(C)=C1C2(C)C.[Na+].[Na+]	156	153	144	–	–
CC(=O)O[C@H]1C(=O)[C@@]2(C)[C@H]([C@H](OC(=O)c3ccccc3)[C@]3(O)C[C@H](OC(=O)[C@H](OC(=O)CC(C)(C)c4c(C)cc(C)cc4OP(=O)([O-])[O-])[C@@H](NC(=O)c4ccccc4)c4ccccc4)C(C)=C1C3(C)C)[C@]1(OC(C)=O)CO[C@@H]1C[C@@H]2O.[Na+].[Na+]	–	–	–	144	275
